From patent US10039718B2, “Use of solid carrier particles to improve the processability of a pharmaceutical agent” (Gilead Sciences, Inc., priority 2008, dated 2018)

Test: Water uptake (hygroscopicity) by dynamic vapor sorption (DVS)
Assay type: physicochemical
Details: 75% RH, 25° C., after 1 hour drying under dry nitrogen
Description: The water uptake for AEROPERL® 300 (fumed silica), the Compound, and a sample of AEROPERL® 300 (fumed silica) loaded with 50.0% (w/w) of the Compound was measured as described below.
The compound of formula (I) was dissolved in ethanol and this solution was poured onto a sample of fumed silica that was equal in weight to the amount of the compound of formula (I). The resulting mixture was thoroughly mixed and the solvent was evaporated to provide the compound/AEROPERL® 300 (fumed silica) material used for the uptake study below.
The hygroscopicity of the samples was measured by dynamic vapor sorption (DVS) on a DVS Advantage-1 instrument from Surface Measurement Systems (SMS, Allentown, Pa.). In a DVS experiment the mass increase/decrease of a sample is measured at various relative humidity (RH) levels at a constant temperature. The instrument consists of a microbalance with one pan containing the sample (typically about 5-10 mg of sample) and an empty pan as a reference, and a water vapor generator to produce the desired relative humidity level. All experiments were run at a constant temperature of 25° C. For all experiments the samples were initially dried under a continuous flow of dry nitrogen for 1 hour to establish the dry mass m0. The relative humidity was then increased to 75% and the increase in mass was recorded as the samples take up water.

For `CC(C)c1nc(CN(C)C(=O)NC(CCN2CCOCC2)C(=O)NC(CCC(Cc2ccccc2)NC(=O)OCc2cncs2)Cc2ccccc2)cs1` (stereo not shown) [the Compound], the “water adsorbed (increase in mass at equilibrium)” value was 4.8 % (by weight).
